Laboratory results reported in BigSolDB 2.1.

For `CC(C)(C)c1cc(CCC(=O)NCCCCCCNC(=O)CCc2cc(C(C)(C)C)c(O)c(C(C)(C)C)c2)cc(C(C)(C)C)c1O`, the solubility (mole fraction) (in acetone, 283.15 K) was 0.00214, the solubility (mole fraction) (in acetone, 288.15 K) was 0.00257 and the solubility (mole fraction) (in acetone, 293.15 K) was 0.00297. For the same compound, the solubility (mole fraction) (in acetone, 298.15 K) was 0.00328, the solubility (mole fraction) (in acetone, 303.15 K) was 0.00419 and the solubility (mole fraction) (in acetone, 308.15 K) was 0.00585. The solubility (mole fraction) (in acetone, 313.15 K) was 0.00747, the solubility (mole fraction) (in acetone, 318.15 K) was 0.01 and the solubility (mole fraction) (in acetone, 323.15 K) was 0.0152. The solubility (mole fraction) (in ethanol, 283.15 K) was 0.00775, the solubility (mole fraction) (in ethanol, 288.15 K) was 0.00841 and the solubility (mole fraction) (in ethanol, 293.15 K) was 0.00982. For the same compound, the solubility (mole fraction) (in ethanol, 298.15 K) was 0.011, the solubility (mole fraction) (in ethanol, 303.15 K) was 0.0126 and the solubility (mole fraction) (in ethanol, 308.15 K) was 0.0148. The solubility (mole fraction) (in ethanol, 313.15 K) was 0.0178, the solubility (mole fraction) (in ethanol, 318.15 K) was 0.0218 and the solubility (mole fraction) (in ethanol, 323.15 K) was 0.0264. It also gave a solubility (mole fraction) (in ethyl acetate, 283.15 K) of 0.000614, a solubility (mole fraction) (in ethyl acetate, 288.15 K) of 0.000852 and a solubility (mole fraction) (in ethyl acetate, 293.15 K) of 0.00109. It also gave a solubility (mole fraction) (in ethyl acetate, 298.15 K) of 0.00123, a solubility (mole fraction) (in ethyl acetate, 303.15 K) of 0.00155 and a solubility (mole fraction) (in ethyl acetate, 308.15 K) of 0.00192. The solubility (mole fraction) (in ethyl acetate, 313.15 K) was 0.00258, the solubility (mole fraction) (in ethyl acetate, 318.15 K) was 0.00376 and the solubility (mole fraction) (in ethyl acetate, 323.15 K) was 0.00527. For the same compound, the solubility (mole fraction) (in ethyl formate, 283.15 K) was 0.00151, the solubility (mole fraction) (in ethyl formate, 288.15 K) was 0.00205 and the solubility (mole fraction) (in ethyl formate, 293.15 K) was 0.00207. For the same compound, the solubility (mole fraction) (in ethyl formate, 298.15 K) was 0.00254, the solubility (mole fraction) (in ethyl formate, 303.15 K) was 0.00309 and the solubility (mole fraction) (in ethyl formate, 308.15 K) was 0.00406. It also gave a solubility (mole fraction) (in ethyl formate, 313.15 K) of 0.00501, a solubility (mole fraction) (in ethyl formate, 318.15 K) of 0.00622 and a solubility (mole fraction) (in ethyl formate, 323.15 K) of 0.00879. For the same compound, the solubility (mole fraction) (in isopropanol, 283.15 K) was 0.00326, the solubility (mole fraction) (in isopropanol, 288.15 K) was 0.00345 and the solubility (mole fraction) (in isopropanol, 293.15 K) was 0.004. It also gave a solubility (mole fraction) (in isopropanol, 298.15 K) of 0.00459, a solubility (mole fraction) (in isopropanol, 303.15 K) of 0.00552 and a solubility (mole fraction) (in isopropanol, 308.15 K) of 0.00688. The solubility (mole fraction) (in isopropanol, 313.15 K) was 0.00872, the solubility (mole fraction) (in isopropanol, 318.15 K) was 0.0107 and the solubility (mole fraction) (in isopropanol, 323.15 K) was 0.0129. The solubility (mole fraction) (in methanol, 283.15 K) was 0.00197, the solubility (mole fraction) (in methanol, 288.15 K) was 0.0023 and the solubility (mole fraction) (in methanol, 293.15 K) was 0.00263. For the same compound, the solubility (mole fraction) (in methanol, 298.15 K) was 0.0032, the solubility (mole fraction) (in methanol, 303.15 K) was 0.00388 and the solubility (mole fraction) (in methanol, 308.15 K) was 0.00506. The solubility (mole fraction) (in methanol, 313.15 K) was 0.00666, the solubility (mole fraction) (in methanol, 318.15 K) was 0.00874 and the solubility (mole fraction) (in methanol, 323.15 K) was 0.012. The solubility (mole fraction) (in methyl acetate, 283.15 K) was 0.000498, the solubility (mole fraction) (in methyl acetate, 288.15 K) was 0.000804 and the solubility (mole fraction) (in methyl acetate, 293.15 K) was 0.000846. For the same compound, the solubility (mole fraction) (in methyl acetate, 298.15 K) was 0.00107, the solubility (mole fraction) (in methyl acetate, 303.15 K) was 0.00137 and the solubility (mole fraction) (in methyl acetate, 308.15 K) was 0.00185. It also gave a solubility (mole fraction) (in methyl acetate, 313.15 K) of 0.00239, a solubility (mole fraction) (in methyl acetate, 318.15 K) of 0.00359 and a solubility (mole fraction) (in methyl acetate, 323.15 K) of 0.00538. The solubility (mole fraction) (in n-propanol, 283.15 K) was 0.00711, the solubility (mole fraction) (in n-propanol, 288.15 K) was 0.00807 and the solubility (mole fraction) (in n-propanol, 293.15 K) was 0.00974. For the same compound, the solubility (mole fraction) (in n-propanol, 298.15 K) was 0.0116, the solubility (mole fraction) (in n-propanol, 303.15 K) was 0.0128 and the solubility (mole fraction) (in n-propanol, 308.15 K) was 0.0153. The solubility (mole fraction) (in n-propanol, 313.15 K) was 0.0183, the solubility (mole fraction) (in n-propanol, 318.15 K) was 0.0223 and the solubility (mole fraction) (in n-propanol, 323.15 K) was 0.0254.
